Test results taken from patent US8288424B2, “Substituted tetrahydroimidazopyridine compounds and the use thereof in the treatment of pain and other conditions” (Gruenenthal GmbH, priority 2008, dated 2012).

Target: T1, KCNQ2/3 channels (Homo sapiens, UniProt O43525+O43526)
T1 construct: expressed in transfected cells; host or cells: CHO-K1
Assay: Fluorescence assay using a voltage-sensitive dye
Format: cell-based
Details: CHO-K1 cells expressing KCNQ2/3 channels, agonistic activity; for activation at 10 µM: 10 μmol test substance, read-out: % Stimulation [10 μmol] Average
In short: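 CHO-K1 cells expressing KCNQ2/3 loaded with membrane-potential dye in ES buffer (1 mM KCl, pH 7.4), compound 30 min at room temperature, then KCl added (final 92 mM). Fluorescence (ex 525/em 560 nm) read before (F1) and at peak after (F2) KCl; agonism from F2/F1 change versus buffer controls, EC50 calculated.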

Compound | activation at 10 µM | EC50
Cc1cc(C2CCc3nc(C(=O)NC(C)c4ccccc4)cn3C2)ccc1F (stereo not drawn) [Compound 14, 6-(4-Fluoro-3-methylphenyl)-N-(1-phenylethyl)-5,6,7,8-tetrahydroimidazo[1,2-a]pyridine-2-carboxamide] | 24.7% | 
COc1ccc(C2CCc3nc(C(=O)N4CCCC4)cn3C2)c(OC)c1 (stereo not drawn) [Compound 33, (6-(2,4-Dimethoxyphenyl)-5,6,7,8-tetrahydroimidazo[1,2-a]pyridin-2-yl)(pyrrolidin-1-yl)methanone] | 24.5% | 
CCOC(=O)C1CCCN(C(=O)c2cn3c(n2)CCC(c2ccc(Oc4ccccc4)cc2)C3)C1 (stereo not drawn) [Compound 22, Ethyl 1-(6-(4-phenoxyphenyl)-5,6,7,8-tetrahydroimidazo[1,2-a]pyridine-2-carbonyl)piperidine-3-carboxylate] | 18% | 
O=C(c1cn2c(n1)CCC(c1ccc(Oc3ccccc3)cc1)C2)N1CCCC1 (stereo not drawn) [Compound 25, (6-(4-Phenoxyphenyl)-5,6,7,8-tetrahydroimidazo[1,2-a]pyridin-2-yl)(pyrrolidin-1-yl)methanone] |  | 2330 nM
O=C(c1cn2c(n1)CCC(c1cccc(F)c1)C2)N1CCN(c2cccc(C(F)(F)F)c2)CC1 (stereo not drawn) [Compound 48, (6-(3-Fluorophenyl)-5,6,7,8-tetrahydroimidazo[1,2-a]pyridin-2-yl)(4-(3-(trifluoromethyl)phenyl)piperazin-1-yl)methanone] | 33% | 
Cc1cc(C2CCc3nc(C(=O)N4CCN(c5ccc(F)cc5)CC4)cn3C2)ccc1F (stereo not drawn) [Compound 63, (6-(4-Fluoro-3-methylphenyl)-5,6,7,8-tetrahydroimidazo[1,2-a]pyridin-2-yl)(4-(4-fluorophenyl)piperazin-1-yl)methanone] | 96.7% | 
CCc1ccc(C2CCc3nc(C(=O)N4CCC(Cc5ccccc5)CC4)cn3C2)cc1 (stereo not drawn) [Compound 11, (4-Benzylpiperidin-1-yl)(6-(4-ethylphenyl)-5,6,7,8-tetrahydroimidazo[1,2-a]pyridin-2-yl)methanone] | 38.5% | 
COc1c(C)cc(C2CCc3nc(C(=O)N4CCN(c5cccc(C(F)(F)F)c5)CC4)cn3C2)cc1C (stereo not drawn) [Compound 54, (6-(4-Methoxy-3,5-dimethylphenyl)-5,6,7,8-tetrahydroimidazo[1,2-a]pyridin-2-yl)(4-(3-(trifluoromethyl)phenyl)piperazin-1-yl)methanone] |  | 2450 nM
COc1c(C)cc(C2CCc3nc(C(=O)NCc4cccc(C(F)(F)F)c4)cn3C2)cc1C (stereo not drawn) [Compound 17, 6-(4-Methoxy-3,5-dimethylphenyl)-N-(3-(trifluoromethyl)benzyl)-5,6,7,8-tetrahydroimidazo[1,2-a]pyridine-2-carboxamide] | 18.5% | 
